Experimental data published in patent publication US11479561B2, “Tetrahydroisoquinoline derivatives” (Cytokinetics, Incorporated, priority 2016, dated 2022).

Key:
[1] = system: rabbit skeletal myofibrils (approximately 90% fast fibers); experiment: Activation of fast skeletal myofibrils (PUMA coupled-enzyme ATPase assay); format: biochemical; details: concentration at which the compound increased the enzymatic activity by 40%; calcium level pCa25
Protocol: Preparation of fast skeletal myofibrils: Rabbit skeletal myofibrils were prepared based upon the method of Herrmann et al. (Biochem. 32(28):7255-7263(1993). Myofibrils were prepared from rabbit psoas muscle purchased from Pel-Freez Biologicals (Arkansas) within 2 days of ordering, stored on ice. Minced muscle was homogenized in 10 volumes of ice-cold “standard” buffer (50 mM Tris, pH 7.4, 0.1 M KOAc, 5 mM KCl, 2 mM dithiothreitol (DTT), 0.2 mM phenylmethylsulfonyl fluoride (PMSF), 10 μM leupeptin, 5 μM pepstatin, and 0.5 mM sodium azide) containing 5 mM ethylenediaminetetraacetic acid (EDTA) and 0.5% Triton X-100 using an Omni-Macro homogenizer. Myofibrils were recovered by low speed centrifugation (3000 rpm for 10 minutes) and washed 2 times in the Triton X-100 containing buffer to ensure removal of cellular membrane. Following the Triton washes, myofibrils were washed 3 times in “standard” buffer containing 2 mM magnesium acetate. A final wash in assay buffer (12 mM piperazine-1,4-bis(2-ethanesulfonic acid) (PIPES), pH 6.8, 60 mM KCl, 1 mM DTT) was performed and brought to 10% sucrose for flash freezing in liquid nitrogen and storage at −80° C.
Activation of Fast Skeletal Myofibrils: Fast fiber activators were identified by Measuring the enzymatic activity of muscle myofibril preparations using the proprietary PUMA (trademark) (see, e.g., U.S. Pat. Nos. 6,410,254, 6,743,599, 7,202,051, and 7,378,254) assay system. Myofibril preparations consisted of rabbit skeletal muscle (approximately 90% fast fibers) that had been mechanically homogenized and washed with a detergent (Triton X-100) to remove cellular membranes. This preparation retained all of the sarcomeric components in a native conformation and the enzymatic activity was still regulated by calcium. Compounds were tested using a myofibril suspension and a level of calcium sufficient to increase enzymatic activity of the myofibrils to 25% of their maximal rate (termed pCa25). Enzymatic activity was tracked via a pyruvate kinase and lactate dehydrogenase-coupled enzyme system. This assay regenerates myosin-produced ADP into ATP by oxidizing NADH, producing an absorbance change at 340 nm. The buffering system was 12 mM PIPES, 2 mM MgCl2, 1 mM DTT at pH 6.8 (PM12 buffer).

[2] = system: rat model of post-SCI; experiment: Basso, Beattie, and Bresnahan (BBB) score of post-spinal cord injury (SCI); format: in vivo, SD rats; details: post-SCI rats; day 6-7, 13-14, 20-21 after SCI; FIG. 8
Protocol: Preparation of the rat model of post-SCI: The rat model was prepared based on the method of Scheff et. al. (J Neurotrauma. 2003 February; 20(2):179-93.) which uses Infinite Horizon impactor (IH-0400; Precision Systems and Instrumentation). Female SD rats (10 week old) were anesthetized with a mixture of 0.3 mg/kg medetomidine, 4 mg/kg midazoram, and 5 mg/kg butorphanol (s.c.). The dorsal region of the rats was incised and the thoracic spine from T8 to T12 was exposed. Subsequently, laminectomy was performed on T9 and T10. On the stage of IH-0400, the exposed spinal column of the rats was stabilized by clamping with two forceps attached to the joints of IH-0400. Each of the joint and the forceps was tightly locked. Injury of T9 and T10 was induced with a rod impact of 210 kdyn. After dorsal closure, the rats were housed one per cage under the postoperative care which includes the injections of 5 mL saline s.c. and 50 mg/kg Cefamezin s.c twice a day for a week after the SCI, and includes the manual expression of the bladder of the rats twice a day using Crede maneuver until the function of the bladder recovers. […] The effect of Example Compound 52 or vehicle was analyzed using unpaired t test (a probability value of less than 0.05 was considered as a significant difference). Data were expressed as the mean±SEM.

[3] = system: ankle plantarflexor muscle; experiment: Rat isometric ankle plantarflexor muscle force; format: in vivo, Sprague Dawley rats; details: Rattus norvegicus, iv, 1 h, estimated; concentration at which muscle force is 50% of the pre-dose maximum tension; 30 Hz stimulation; continuous intravenous infusion over 60 min
Description: Female Sprague Dawley rats were placed under a stable anesthesic plane with inhaled isoflurane (1-5%). One incision was made on the mid-thigh region of the right leg to expose the sciatic nerve. To prevent co-contraction of the ankle dorsiflexors, an additional incision was made lateral to the patella to isolate and sever the peroneal nerve. Rats were then placed on a temperature-maintained in situ muscle analysis rig (Aurora Scientific, Model 806C). The knee was immobilized in a clamp between two sharpened screws and the foot was taped to a footplate attached to a force transducer (Aurora Scientific, Ontario, Canada). Stainless steel needle electrodes (0.10 mm) were hooked around the exposed sciatic nerve. Isometric ankle plantarflexor muscle contractile force was assessed with the ankle joint at 90° flexion. A 30 Hz electrical stimulation (under supramaximal voltage conditions) was applied to the nerve and the resulting muscle force was recorded via a servomotor. A pre-dose 30 Hz force response was established as the baseline force. A pre-dose 150 Hz force response was established as the maximum isometric force. Compounds were formulated in 50% polyethylene glycol (PEG): 16% Cavitron: 10% dimethylacetamide (DMA) and administered by continuous intravenous infusion over a sixty minute period. The muscle force response to compound was measured every two minutes over the dosing period. Data was reported as an estimated EC50 value, which is the concentration at which muscle force is 50% of the pre-dose maximum tension.

| AC1.4 [1] [µM] | Compound | BBB score [2] | EC50 [3] [µM] |
| --- | --- | --- | --- |
| 0.326 | CC1(C)C(=O)NC2(COC2)c2ccc(Cl)cc21 [compound 52, 6-chloro-4,4-dimethyl-2H-spiro[isoquinoline-1,3′-oxetan]-3(4H)-one] | increased BBB score | 25.6 |
| 2.067 | CC1(CCO)C(=O)NC2(COC2)c2ccc(C#N)cc21 (centres unmarked) [compound 56] | – | 30 |
